Experimental data from patent US20080020413A1, “CRYSTALLINE VISFATIN AND METHODS THEREFOR” (Columbia University, priority 2006, published 2008).

Experiments:
NAPRTases = conditions: cited from earlier work
tumor cells = conditions: cited from earlier work
normal cells = conditions: cited from earlier work
renal cell carcinoma = conditions: mouse renal cell carcinoma model; cited from earlier work
NMPRTase = target: T1, NMPRTase (Homo sapiens, UniProt P43490); experiment: NMPRTase coupled-enzyme spectrometric assay; format: biochemical; conditions: FIG. 5; Vmax=kcat([E]-[I])
T1 construct: Full-length human and murine NMPRTase (residues 1-491) was sub-cloned into the pET26b vector; made in house; host or cells: E. coli (pET26b vector)
T1 sequence (P43490 whole entry, the tested form may be a part): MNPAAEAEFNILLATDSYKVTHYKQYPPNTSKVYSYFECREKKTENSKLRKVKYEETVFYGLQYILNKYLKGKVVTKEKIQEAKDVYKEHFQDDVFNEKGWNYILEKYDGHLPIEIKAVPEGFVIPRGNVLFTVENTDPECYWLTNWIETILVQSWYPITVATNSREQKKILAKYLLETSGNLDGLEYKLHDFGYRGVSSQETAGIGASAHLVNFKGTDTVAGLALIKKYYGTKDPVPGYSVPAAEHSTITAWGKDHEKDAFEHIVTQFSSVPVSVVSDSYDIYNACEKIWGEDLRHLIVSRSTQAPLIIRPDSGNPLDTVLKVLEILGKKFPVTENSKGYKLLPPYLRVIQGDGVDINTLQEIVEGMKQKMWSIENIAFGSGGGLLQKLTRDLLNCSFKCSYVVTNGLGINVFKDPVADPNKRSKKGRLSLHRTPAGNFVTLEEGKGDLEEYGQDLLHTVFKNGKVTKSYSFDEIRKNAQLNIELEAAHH
Method: The catalytic activity of NMPRTase was determined using a coupled-enzyme spectrometric assay, following a published protocol (Revollo et al., 2004). Briefly, the NMN product of NMPRTase is converted to NAD^+ with the enzyme NMN/NAMN adenylyltransferase (NMNAT), and NAD^+ is then reduced to NADH by alcohol dehydrogenase (Sigma) using ethanol as the substrate. By monitoring the appearance of NADH at 340 nm, the activity of NMPRTase can be determined. […] The reaction buffer contains 50 mM Tris (pH 7.5), 0.4 mM PRPP, various concentrations of NM (or NA), 2.5 mM ATP, 12 mM MgCl2, 1.5% ethanol, 10 mM semicarbazide (to remove the acetaldehyde product of ethanol oxidation), 0.02% BSA, 10 mg/ml NMNAT, 30 mg/ml ADH, and 0.5 mM NMPRTase. The reactions are carried out at room temperature.

O=C(/C=C/c1cccnc1)NCCCCC1CCN(C(=O)c2ccccc2)CC1 [FK866, (E)-N-[4-(1-benzoylpiperidin-4-yl)butyl]-3-(pyridin-3-yl)acrylamide]
inhibition of NAPRTases (NAPRTases): does not inhibit
apoptosis (tumor cells): induces apoptosis
intracellular NAD+ levels (tumor cells): depletion of intracellular NAD^+ levels
toxicity to normal cells (normal cells): little toxicity
anti-angiogenic effects (renal cell carcinoma): potent anti-angiogenic effects
relationship between FK866 concentration and Vmax (NMPRTase): linear relationship
